Measured values reported in the supplement of paper PMC10307832.

Experiments:
Experiment in all cases: relative viability (nuclei count vs DMSO), 5 days (fraction); higher = more cells survive
NCI-H2087 = system: NCI-H2087
In short: (§1)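 The day after seeding in 1536-well plates, lung cancer cell lines were treated by pin tool with a single drug, or with a fixed anchor-drug dose together with five library-drug doses (not always all listed) in √10 steps. After 5 days, a combined fix-and-stain solution (final 0.05% Triton X-100, 1% formaldehyde, 1 ug/ml Hoechst) was added. Nuclei counted on 4× images gave relative viability as treated counts over vehicle counts, reported as the median of duplicate plates.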

UMC-11 = system: UMC-11
In short: as §1

NCI-H1355 = system: NCI-H1355
In short: as §1

NCI-H1651 = system: NCI-H1651
In short: as §1

EMC-BAC-2 = system: EMC-BAC-2
In short: as §1

NCI-H650 = system: NCI-H650
In short: as §1

EPLC-272H = system: EPLC-272H
In short: as §1

NCI-H2023 = system: NCI-H2023
In short: as §1

NCI-H520 = system: NCI-H520
In short: as §1

LCLC-97TM1 = system: LCLC-97TM1
In short: as §1

SK-MES-1 = system: SK-MES-1
In short: as §1

HCC-44 = system: HCC-44
In short: as §1

NCI-H1793 = system: NCI-H1793
In short: as §1

H3255 = system: H3255
In short: as §1

HCC-827 = system: HCC-827
In short: as §1

NCI-H1944 = system: NCI-H1944
In short: as §1

NCI-H2405 = system: NCI-H2405
In short: as §1

LCLC-103H = system: LCLC-103H
In short: as §1

NCI-H1395 = system: NCI-H1395
In short: as §1

ChaGo-K-1 = system: ChaGo-K-1
In short: as §1

NCI-H2085 = system: NCI-H2085
In short: as §1

NCI-H322M = system: NCI-H322M
In short: as §1

CC1(C)CCC(c2ccc(Cl)cc2)=C(CN2CCN(c3ccc(C(=O)NS(=O)(=O)c4ccc(N[C@H](CCN5CCOCC5)CSc5ccccc5)c(S(=O)(=O)C(F)(F)F)c4)cc3)CC2)C1 [Navitoclax] + O=C(c1cc(Cc2n[nH]c(=O)c3ccccc23)ccc1F)N1CCN(C(=O)C2CC2)CC1 [Olaparib] (partner 8 µM) gave a relative viability (NCI-H2087; first compound 0.005 µM) of 0.69, a relative viability (NCI-H2087; first compound 0.01581 µM) of 0.632 and a relative viability (NCI-H2087; first compound 0.1581 µM) of 0.638. The relative viability (NCI-H2087; first compound 0.5 µM) was 0.598, the relative viability (UMC-11; first compound 0.005 µM) was 0.89 and the relative viability (UMC-11; first compound 0.01581 µM) was 0.361. For the same compound, the relative viability (UMC-11; first compound 0.05 µM) was 0.346, the relative viability (UMC-11; first compound 0.1581 µM) was 0.317 and the relative viability (UMC-11; first compound 0.5 µM) was 0.266. The relative viability (NCI-H1355; first compound 0.005 µM) was 0.74, the relative viability (NCI-H1355; first compound 0.01581 µM) was 0.731 and the relative viability (NCI-H1355; first compound 0.05 µM) was 0.734. The relative viability (NCI-H1355; first compound 0.1581 µM) was 0.694, the relative viability (NCI-H1355; first compound 0.5 µM) was 0.806 and the relative viability (NCI-H1651; first compound 0.005 µM) was 0.167. It also gave a relative viability (NCI-H1651; first compound 0.01581 µM) of 0.181, a relative viability (NCI-H1651; first compound 0.05 µM) of 0.152 and a relative viability (NCI-H1651; first compound 0.1581 µM) of 0.189. For the same compound, the relative viability (NCI-H1651; first compound 0.5 µM) was 0.197, the relative viability (EMC-BAC-2; first compound 0.005 µM) was 0.461 and the relative viability (EMC-BAC-2; first compound 0.01581 µM) was 0.483. For the same compound, the relative viability (EMC-BAC-2; first compound 0.05 µM) was 0.456, the relative viability (EMC-BAC-2; first compound 0.1581 µM) was 0.434 and the relative viability (EMC-BAC-2; first compound 0.5 µM) was 0.452. For the same compound, the relative viability (NCI-H650; first compound 0.005 µM) was 0.395, the relative viability (NCI-H650; first compound 0.01581 µM) was 0.453 and the relative viability (NCI-H650; first compound 0.05 µM) was 0.35. It also gave a relative viability (NCI-H650; first compound 0.1581 µM) of 0.362, a relative viability (NCI-H650; first compound 0.5 µM) of 0.386 and a relative viability (EPLC-272H; first compound 0.005 µM) of 0.877. For the same compound, the relative viability (EPLC-272H; first compound 0.01581 µM) was 0.79, the relative viability (EPLC-272H; first compound 0.05 µM) was 0.644 and the relative viability (EPLC-272H; first compound 0.1581 µM) was 0.714. It also gave a relative viability (EPLC-272H; first compound 0.5 µM) of 1.18, a relative viability (NCI-H2023; first compound 0.005 µM) of 0.445 and a relative viability (NCI-H2023; first compound 0.01581 µM) of 0.47. The relative viability (NCI-H2023; first compound 0.05 µM) was 0.534, the relative viability (NCI-H2023; first compound 0.1581 µM) was 0.442 and the relative viability (NCI-H2023; first compound 0.5 µM) was 0.496. It also gave a relative viability (NCI-H520; first compound 0.005 µM) of 0.346, a relative viability (NCI-H520; first compound 0.01581 µM) of 0.299 and a relative viability (NCI-H520; first compound 0.05 µM) of 0.336. For the same compound, the relative viability (NCI-H520; first compound 0.1581 µM) was 0.318, the relative viability (NCI-H520; first compound 0.5 µM) was 0.33 and the relative viability (LCLC-97TM1; first compound 0.005 µM) was 0.34. For the same compound, the relative viability (LCLC-97TM1; first compound 0.01581 µM) was 0.599, the relative viability (LCLC-97TM1; first compound 0.05 µM) was 0.243 and the relative viability (LCLC-97TM1; first compound 0.1581 µM) was 0.409. The relative viability (LCLC-97TM1; first compound 0.5 µM) was 0.445, the relative viability (SK-MES-1; first compound 0.005 µM) was 0.648 and the relative viability (SK-MES-1; first compound 0.01581 µM) was 0.677. For the same compound, the relative viability (SK-MES-1; first compound 0.05 µM) was 0.775, the relative viability (SK-MES-1; first compound 0.1581 µM) was 0.636 and the relative viability (SK-MES-1; first compound 0.5 µM) was 0.814. For the same compound, the relative viability (HCC-44; first compound 0.005 µM) was 0.971, the relative viability (HCC-44; first compound 0.01581 µM) was 0.98 and the relative viability (HCC-44; first compound 0.05 µM) was 0.887. For the same compound, the relative viability (HCC-44; first compound 0.1581 µM) was 0.943, the relative viability (HCC-44; first compound 0.5 µM) was 0.932 and the relative viability (NCI-H1793; first compound 0.005 µM) was 0.903. It also gave a relative viability (NCI-H1793; first compound 0.01581 µM) of 1.05, a relative viability (NCI-H1793; first compound 0.1581 µM) of 0.885 and a relative viability (NCI-H1793; first compound 0.5 µM) of 0.684. For the same compound, the relative viability (H3255; first compound 0.005 µM) was 0.563, the relative viability (H3255; first compound 0.01581 µM) was 0.626 and the relative viability (H3255; first compound 0.05 µM) was 0.57. The relative viability (H3255; first compound 0.1581 µM) was 0.57, the relative viability (H3255; first compound 0.5 µM) was 0.506 and the relative viability (HCC-827; first compound 0.005 µM) was 0.714. It also gave a relative viability (HCC-827; first compound 0.01581 µM) of 0.669, a relative viability (HCC-827; first compound 0.05 µM) of 0.531 and a relative viability (HCC-827; first compound 0.1581 µM) of 0.638. For the same compound, the relative viability (HCC-827; first compound 0.5 µM) was 0.632, the relative viability (NCI-H1944; first compound 0.005 µM) was 0.383 and the relative viability (NCI-H1944; first compound 0.01581 µM) was 0.403. The relative viability (NCI-H1944; first compound 0.1581 µM) was 0.412, the relative viability (NCI-H1944; first compound 0.5 µM) was 0.401 and the relative viability (NCI-H2405; first compound 0.005 µM) was 0.803. It also gave a relative viability (NCI-H2405; first compound 0.01581 µM) of 0.881, a relative viability (NCI-H2405; first compound 0.05 µM) of 0.953 and a relative viability (NCI-H2405; first compound 0.1581 µM) of 0.801. It also gave a relative viability (NCI-H2405; first compound 0.5 µM) of 0.739, a relative viability (LCLC-103H; first compound 0.005 µM) of 0.715 and a relative viability (LCLC-103H; first compound 0.01581 µM) of 0.817. For the same compound, the relative viability (LCLC-103H; first compound 0.05 µM) was 0.729, the relative viability (LCLC-103H; first compound 0.1581 µM) was 0.738 and the relative viability (LCLC-103H; first compound 0.5 µM) was 0.705. For the same compound, the relative viability (NCI-H1395; first compound 0.005 µM) was 0.456, the relative viability (NCI-H1395; first compound 0.01581 µM) was 0.495 and the relative viability (NCI-H1395; first compound 0.05 µM) was 0.441. It also gave a relative viability (NCI-H1395; first compound 0.1581 µM) of 0.428, a relative viability (NCI-H1395; first compound 0.5 µM) of 0.473 and a relative viability (ChaGo-K-1; first compound 0.005 µM) of 0.445. The relative viability (ChaGo-K-1; first compound 0.01581 µM) was 0.472, the relative viability (ChaGo-K-1; first compound 0.05 µM) was 0.28 and the relative viability (ChaGo-K-1; first compound 0.1581 µM) was 0.453. The relative viability (ChaGo-K-1; first compound 0.5 µM) was 0.461, the relative viability (NCI-H2085; first compound 0.005 µM) was 0.74 and the relative viability (NCI-H2085; first compound 0.01581 µM) was 0.864. The relative viability (NCI-H2085; first compound 0.05 µM) was 0.596, the relative viability (NCI-H2085; first compound 0.1581 µM) was 0.746 and the relative viability (NCI-H2085; first compound 0.5 µM) was 0.815. It also gave a relative viability (NCI-H322M; first compound 0.005 µM) of 0.8, a relative viability (NCI-H322M; first compound 0.01581 µM) of 0.984 and a relative viability (NCI-H322M; first compound 0.05 µM) of 0.754. The relative viability (NCI-H322M; first compound 0.1581 µM) was 0.725 and the relative viability (NCI-H322M; first compound 0.5 µM) was 0.934.
